Earlier results in patent US20170119788A1, “METHODS AND COMPOSITIONS FOR DERMATOLOGICAL USE COMPRISING FLUTICASONE AND MOMETASONE AND BIOPOLYMERS” (APEX LABORATORIES PRIVATE LIMITED, priority 2015, published 2017).
Read-outs that look alike come from different tables or passages of the source.

Experiments:
human transcortin = molecular target: T1, human transcortin (Homo sapiens, UniProt P08185); conditions: result in words
T1 sequence (P08185 23-405): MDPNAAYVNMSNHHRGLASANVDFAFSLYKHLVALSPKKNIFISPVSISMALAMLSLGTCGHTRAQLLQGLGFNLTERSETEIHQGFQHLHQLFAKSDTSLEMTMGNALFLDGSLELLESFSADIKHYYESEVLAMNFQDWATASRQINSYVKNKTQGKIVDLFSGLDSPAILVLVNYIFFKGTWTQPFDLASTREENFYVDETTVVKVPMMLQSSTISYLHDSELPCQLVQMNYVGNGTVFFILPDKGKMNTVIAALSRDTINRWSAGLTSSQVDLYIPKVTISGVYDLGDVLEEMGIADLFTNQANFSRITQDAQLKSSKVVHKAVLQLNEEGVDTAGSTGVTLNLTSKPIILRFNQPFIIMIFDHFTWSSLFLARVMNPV

human plasma proteins = conditions: average
erythrocytes = conditions: result in words
[1] = molecular target: T2, human glucocorticoid receptors (Homo sapiens, UniProt P04150); conditions: in vitro, result in words
T2 sequence (P04150 1-777): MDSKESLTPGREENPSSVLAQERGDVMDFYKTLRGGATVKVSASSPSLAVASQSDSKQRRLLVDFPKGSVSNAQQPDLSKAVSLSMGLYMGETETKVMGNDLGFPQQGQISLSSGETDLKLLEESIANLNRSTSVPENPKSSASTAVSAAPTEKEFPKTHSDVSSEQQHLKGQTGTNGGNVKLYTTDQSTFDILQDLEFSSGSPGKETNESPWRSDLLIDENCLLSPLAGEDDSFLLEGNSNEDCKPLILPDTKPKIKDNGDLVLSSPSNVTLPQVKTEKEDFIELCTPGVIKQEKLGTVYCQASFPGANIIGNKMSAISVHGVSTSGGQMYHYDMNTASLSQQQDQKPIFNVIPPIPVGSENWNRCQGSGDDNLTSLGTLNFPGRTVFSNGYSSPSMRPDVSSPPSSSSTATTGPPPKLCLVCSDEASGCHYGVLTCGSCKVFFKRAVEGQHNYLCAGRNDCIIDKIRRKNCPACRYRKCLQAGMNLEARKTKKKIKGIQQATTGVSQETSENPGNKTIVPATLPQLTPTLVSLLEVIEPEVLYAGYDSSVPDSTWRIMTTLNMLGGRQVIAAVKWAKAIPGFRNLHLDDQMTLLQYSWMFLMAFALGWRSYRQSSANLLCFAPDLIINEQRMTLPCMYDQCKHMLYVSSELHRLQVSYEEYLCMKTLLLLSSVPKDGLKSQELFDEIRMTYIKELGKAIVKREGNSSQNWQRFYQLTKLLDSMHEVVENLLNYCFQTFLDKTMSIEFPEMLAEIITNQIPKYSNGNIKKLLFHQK

[2] = not given; remark: listed apart in the source
[3] = not given; remark: listed apart in the source
[4] = not given; remark: listed apart in the source

binding to human transcortin (human transcortin)	percentage bound to human plasma proteins (human plasma proteins)	apparent volume of distribution, average	terminal half-life, average	binding to erythrocytes (erythrocytes)	affinity and agonist activity at human glucocorticoid receptors [1]	solubility in dimethyl sulfoxide and dimethylformamide ([2]; dimethyl sulfoxide and dimethylformamide)	solubility in methanol and 95% ethanol ([2]; methanol and 95% ethanol)	solubility in water ([2]; water)	solubility in ethyl alcohol ([3]; ethyl alcohol)	solubility in octanol ([3]; octanol)	solubility in water ([3]; water)	bioavailability of an inhaled dose ([4]; compared with IV administration)	excretion in the feces ([4]; up to 7 days)	excretion in the urine ([4]; up to 7 days)	SMILES
not significantly bound	91%	4.2 L/kg	7.2 h	weakly and reversibly bound	strong affinity and agonist activity	freely soluble	slightly soluble	practically insoluble							CCC(=O)O[C@]1(C(=O)SCF)[C@H](C)C[C@H]2[C@@H]3C[C@H](F)C4=CC(=O)C=C[C@]4(C)[C@@]3(F)[C@@H](O)C[C@@]21C [Fluticasone propionate, S-(fluoromethyl)6α,9-difluoro-11β-17-dihydroxy-16α-methyl-3-oxoandrosta-1,4-diene-17β-carbothioate, 17-propionate]
									moderately soluble	slightly soluble	practically insoluble	less than 1%	74%	8%	C[C@@H]1C[C@H]2[C@@H]3CCC4=CC(=O)C=C[C@]4(C)[C@@]3(Cl)[C@@H](O)C[C@]2(C)[C@@]1(OC(=O)c1ccco1)C(=O)CCl [Mometasone Furoate, 9α, 21-dichloro-11β, 17-dihydroxy-16α-methylpregna-1,4-diene-3, 20-dione 17-(2-Furoate)]
